Assay [1] concerns the target NRAS Q61K (Homo sapiens, UniProt P01111+P62937, Q61K). Nature of the assay: Disruption of BRAF RBD interaction with Ras (FRET / MOA assay, with Cyclophilin A). The assay is classed as biochemical. As to conditions: NRAS Q61K; read-out: NRAS Q61K FRET data IC50. The method, boiled down: (§1)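 TR-FRET in 25 mM HEPES pH 7.3, 100 mM NaCl, 5 mM MgCl2, 0.1% BSA: 25 μM Cyclophilin A, 12.5 nM His6-Ras-GMPPNP, 50 nM GST-BRAF RBD with compound (10-point 3-fold series from 30 μM), 3 h at 25° C. Anti-His Eu/anti-GST APC added, 1.5 h more; IC50 from decreased FRET ratio versus DMSO.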

The target of assay [2] is KRAS Q61H (Homo sapiens, UniProt P01116+P62937, Q61H). Described as above. The assay is classed as biochemical. Particulars: KRAS Q61H; read-out: KRAS Q61H FRET data IC50. Summed up: as §1
Assay [3] has as its target NRAS Q61R (Homo sapiens, UniProt P01111+P62937, Q61R). The description is as above. The assay is classed as biochemical. As to conditions: NRAS Q61R; read-out: NRAS Q61R FRET data IC50. The method, boiled down: as §1
For assay [4], the target named is NRAS WT (Homo sapiens, UniProt P01111+P62937). The assay is described as above. The assay is classed as biochemical. Particulars: NRAS WT; read-out: NRAS WT FRET data IC50. The method, boiled down: as §1
Assay [5] concerns the target KRAS G12C (Homo sapiens, UniProt P01116+P62937, G12C). The description is as above. It is filed as biochemical. As to conditions: read-out: KRAS G12C FRET data, IC50. Summed up:
(§2)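 IC50 values reflect loss of K-Ras binding to BRAF RBD, read as a lowered TR-FRET ratio compared with DMSO, driven by compound-mediated K-Ras:Cyclophilin A complex formation. Compound top dose 30 μM final, 3-fold steps, 3 h incubation at 25 °C before a 1.5 h antibody step.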

Assay [6] concerns the target NRAS G12C (Homo sapiens, UniProt P01111+P62937, G12C). The description is as above. The assay is classed as biochemical. Particulars: NRAS G12C; read-out: NRAS G12C FRET data IC50.
Assay [7] concerns the target KRAS G12D (Homo sapiens, UniProt P01116+P62937, G12D). The assay is described as above. It is filed as biochemical. As to conditions: read-out: KRAS G12D FRET data, IC50. Summed up: as §2
The target in assay [8] is KRAS G13D (Homo sapiens, UniProt P01116+P62937, G13D). The description is as above. It is filed as biochemical. Particulars: KRAS G13D; read-out: KRAS G13D FRET data IC50. The method, boiled down:
as §2

The target of assay [9] is KRAS G13C (Homo sapiens, UniProt P01116+P62937, G13C). Described as above. The assay is classed as biochemical. Particulars: read-out: KRAS G13C FRET data, IC50. Summed up:
as §2

Assay [10] addresses KRAS G12S (Homo sapiens, UniProt P01116+P62937, G12S). The assay is described as above. It is filed as biochemical. As to conditions: read-out: KRAS G12S FRET data, IC50. The method, boiled down: as §2
The target of assay [11] is KRAS WT (Homo sapiens, UniProt P01116+P62937). The description is as above. The assay is classed as biochemical. As to conditions: KRAS WT; read-out: KRAS WT FRET data IC50. The method, boiled down:
as §2

Assay [12] deals with KRAS G12V (Homo sapiens, UniProt P01116+P62937, G12V). Described as above. It is filed as biochemical. Particulars: KRAS G12V; read-out: KRAS G12V FRET data IC50. Summed up:
as §2

Assay [13] concerns NCI-H358 (K-Ras G12C). Nature of the assay: CellTiter-Glo cell viability assay, 5-day treatment. It is filed as cell-based. As to conditions: Homo sapiens, NCI-H358, 120 h, 5-day treatment; read-out: H358 Cell Viability assay data (K-Ras G12C, IC50). Summed up: (§3)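 Seeded cells received test compound by direct dispensing. On day 5 the plates sat at room temperature approximately 30 minutes, then luminescence was measured. Data were normalized to DMSO and curve-fitted with four parameters.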

In assay [14] the test system is Capan-1 (K-Ras G12V). The description is as above. The assay is classed as cell-based. As to conditions: Homo sapiens, CAPAN-1, 120 h, 5-day treatment; read-out: Capan-1 Cell Viability assay data (K-Ras G12V, IC50). The method, boiled down:
as §3

This is an account of results in patent US20230233569A1 (Revolution Medicines, Inc., priority 2020, published 2023).

Chain of KRAS G12V (P01116 1-169 isoform P01116-2 G12V limits assumed): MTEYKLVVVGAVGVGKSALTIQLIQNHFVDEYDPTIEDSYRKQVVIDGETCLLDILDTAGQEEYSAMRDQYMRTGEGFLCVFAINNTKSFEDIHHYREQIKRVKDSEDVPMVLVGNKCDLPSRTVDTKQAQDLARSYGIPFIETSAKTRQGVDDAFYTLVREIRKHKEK
Chain of KRAS G12V (P62937 whole entry): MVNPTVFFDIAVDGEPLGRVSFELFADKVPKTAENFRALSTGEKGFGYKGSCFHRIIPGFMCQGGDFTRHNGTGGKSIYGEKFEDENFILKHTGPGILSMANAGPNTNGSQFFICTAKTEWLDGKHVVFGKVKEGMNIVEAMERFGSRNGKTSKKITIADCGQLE
Chain of NRAS WT (P01111 whole entry): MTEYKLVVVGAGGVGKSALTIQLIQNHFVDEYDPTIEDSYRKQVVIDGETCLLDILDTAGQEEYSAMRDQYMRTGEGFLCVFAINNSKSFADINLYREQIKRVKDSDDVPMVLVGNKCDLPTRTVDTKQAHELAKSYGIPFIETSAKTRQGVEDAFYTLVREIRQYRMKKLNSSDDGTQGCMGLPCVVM
Chain of NRAS WT (P62937 whole entry): as the sequence (P62937 whole entry) above
Chain of KRAS G13C (P01116 1-169 isoform P01116-2 G13C): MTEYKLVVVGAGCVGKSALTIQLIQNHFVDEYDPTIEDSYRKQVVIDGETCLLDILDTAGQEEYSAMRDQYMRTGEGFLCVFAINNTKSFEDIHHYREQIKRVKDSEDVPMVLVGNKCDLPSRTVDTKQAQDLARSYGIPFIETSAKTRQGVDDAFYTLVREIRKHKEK
Chain of KRAS G13C (P62937 whole entry): as the sequence (P62937 whole entry) above
Chain of NRAS G12C (P01111 whole entry G12C): as the sequence (P01111 whole entry) above, with G12C counted along it
Chain of NRAS G12C (P62937 whole entry): as the sequence (P62937 whole entry) above
Chain of KRAS Q61H (P01116 1-169 isoform P01116-2 Q61H limits assumed): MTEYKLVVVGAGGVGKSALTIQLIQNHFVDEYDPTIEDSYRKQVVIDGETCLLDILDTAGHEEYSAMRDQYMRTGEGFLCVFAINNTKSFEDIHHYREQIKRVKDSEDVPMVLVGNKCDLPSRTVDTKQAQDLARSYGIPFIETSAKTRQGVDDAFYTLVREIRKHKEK
Chain of KRAS Q61H (P62937 whole entry): as the sequence (P62937 whole entry) above
Chain of NRAS Q61R (P01111 whole entry Q61R): as the sequence (P01111 whole entry) above, with Q61R counted along it
Chain of NRAS Q61R (P62937 whole entry): as the sequence (P62937 whole entry) above
Chain of KRAS G13D (P01116 1-169 isoform P01116-2 G13D limits assumed): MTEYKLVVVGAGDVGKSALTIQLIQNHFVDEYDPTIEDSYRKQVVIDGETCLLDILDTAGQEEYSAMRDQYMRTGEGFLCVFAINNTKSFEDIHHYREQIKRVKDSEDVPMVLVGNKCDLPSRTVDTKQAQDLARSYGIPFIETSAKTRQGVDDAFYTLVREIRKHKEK
Chain of KRAS G13D (P62937 whole entry): as the sequence (P62937 whole entry) above
Chain of KRAS G12S (P01116 1-169 isoform P01116-2 G12S limits assumed): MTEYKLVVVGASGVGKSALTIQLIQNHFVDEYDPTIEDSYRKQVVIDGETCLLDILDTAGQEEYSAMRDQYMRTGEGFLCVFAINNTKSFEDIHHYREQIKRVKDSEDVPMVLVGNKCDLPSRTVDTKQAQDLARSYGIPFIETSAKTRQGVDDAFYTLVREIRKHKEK
Chain of KRAS G12S (P62937 whole entry): as the sequence (P62937 whole entry) above
Chain of KRAS WT (P01116 1-169 isoform P01116-2 limits assumed): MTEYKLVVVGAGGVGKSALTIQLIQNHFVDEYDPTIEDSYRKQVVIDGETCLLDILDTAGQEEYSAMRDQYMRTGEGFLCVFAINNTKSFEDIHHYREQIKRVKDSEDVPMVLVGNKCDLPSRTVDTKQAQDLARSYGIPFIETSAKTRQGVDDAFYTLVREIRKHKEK
Chain of KRAS WT (P62937 whole entry): as the sequence (P62937 whole entry) above
Chain of KRAS G12D (P01116 1-169 isoform P01116-2 G12D limits assumed): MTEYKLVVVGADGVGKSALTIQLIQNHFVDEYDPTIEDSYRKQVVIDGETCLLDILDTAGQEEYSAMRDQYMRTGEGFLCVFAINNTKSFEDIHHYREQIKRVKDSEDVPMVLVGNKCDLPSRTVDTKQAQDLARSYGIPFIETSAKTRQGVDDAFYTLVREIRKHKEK
Chain of KRAS G12D (P62937 whole entry): as the sequence (P62937 whole entry) above
Chain of KRAS G12C (P01116 1-169 isoform P01116-2 G12C): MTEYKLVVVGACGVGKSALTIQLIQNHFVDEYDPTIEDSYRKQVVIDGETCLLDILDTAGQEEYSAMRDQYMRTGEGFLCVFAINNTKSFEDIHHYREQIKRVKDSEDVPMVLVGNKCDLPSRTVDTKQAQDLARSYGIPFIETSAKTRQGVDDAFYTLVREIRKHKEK
Chain of KRAS G12C (P62937 whole entry): as the sequence (P62937 whole entry) above
Chain of NRAS Q61K (P01111 whole entry Q61K): as the sequence (P01111 whole entry) above, with Q61K counted along it
Chain of NRAS Q61K (P62937 whole entry): as the sequence (P62937 whole entry) above

In general, IC50 refers to the concentration that inhibits the measured activity by half. As to `CCn1c(-c2cccnc2[C@H](C)OC)c2c3cc(ccc31)-c1cc(O)cc(c1)C[C@H](NC(=O)[C@H](C(C)C)N(C)C(=O)OC1CC1)C(=O)N1CCC[C@H](N1)C(=O)OCC(C)(C)C2` [Example A174], the IC50 in assay [1] lay within 100 to 1000 nM; in [2], 10 to 100 nM; in assay [3] it was 100 to 1000 nM; in [4], 100 to 1000 nM; in [5] it was 100 to 1000 nM; in assay [6], 100 to 1000 nM. In addition, the IC50 in assay [7], in assay [8], in [9], in assay [10], in assay [11] and in assay [12] was 100 to 1000 nM in each case. The IC50 in assay [13] and in [14] was 100 to 1000 nM throughout.
In the case of `CCn1c(-c2cccnc2[C@H](C)OC)c2c3cc(ccc31)-c1csc(n1)C[C@H](NC(=O)[C@H](C(C)C)N(C)C(=O)N1CCC(C(=O)C(F)(F)F)CC1)C(=O)N1CCC[C@H](N1)C(=O)OCC(C)(C)C2` [Example A422], the IC50 in assay [1], in assay [2], in assay [3], in assay [4], in assay [5] and in assay [6] was 10 to 100 nM each time. In addition, the IC50 is 100 to 1000 nM in assay [7]; 100 to 1000 nM in [8]; 10 to 100 nM in assay [9]; 10 to 100 nM in assay [10]; 10 to 100 nM in assay [11]; 10 to 100 nM in assay [12]. Also, the IC50 lay in the range of 10 to 100 nM in assay [13] and 100 to 1000 nM in [14].
For `CCn1c(-c2cccnc2[C@H](C)OC)c2c3cc(ccc31)-c1csc(n1)C[C@H](NC(=O)[C@H](C(C)C)N(C)C(=O)N1C[C@@H]3CN(C)CC[C@@H]31)C(=O)N1CCC[C@H](N1)C(=O)OCC(C)(C)C2` [Example A481], the IC50 lay in the range of 100 to 1000 nM in assay [1]; 100 to 1000 nM in assay [2]; 1000 to 10000 nM in assay [3]; 100 to 1000 nM in assay [4]; 100 to 1000 nM in assay [5]; 100 to 1000 nM in assay [6]. Besides, the concentration for half-maximal inhibition (IC50) in assay [7], in [8], in [9], in assay [10], in assay [11] and in [12] was 1000 to 10000 nM throughout. Also, the half-maximal inhibitory concentration (IC50) in [13] and in assay [14] was 10 to 100 nM throughout.
For the compound `CCn1c(-c2cccnc2[C@H](C)OC)c2c3cc(ccc31)-c1csc(n1)C[C@H](NC(=O)[C@H](C(C)C)N(C)C(=O)N1CC[C@@H](O)C1)C(=O)N1CCC[C@H](N1)C(=O)OCC(C)(C)C2` (atropisomer, axis not shown) [Example A376], the IC50 was in the range of 10 to 100 nM in assay [1]; 10 to 100 nM in assay [2]; 100 to 1000 nM in assay [3]; 100 to 1000 nM in assay [4]; 10 to 100 nM in assay [5]; 10 to 100 nM in [6]. Besides, the concentration for half-maximal inhibition (IC50) in assay [7], in assay [8], in assay [9], in [10], in [11] and in assay [12] was 100 to 1000 nM in each case. The IC50 in assay [13] and in assay [14] was 10 to 100 nM in each case.
